Drawing on US9315490B2, “2,5-substituted pyrimidines” (Grünenthal GmbH, priority 2014, dated 2016), this text covers inhibition for 29 compounds.

T1 sequence (Q07343 whole entry): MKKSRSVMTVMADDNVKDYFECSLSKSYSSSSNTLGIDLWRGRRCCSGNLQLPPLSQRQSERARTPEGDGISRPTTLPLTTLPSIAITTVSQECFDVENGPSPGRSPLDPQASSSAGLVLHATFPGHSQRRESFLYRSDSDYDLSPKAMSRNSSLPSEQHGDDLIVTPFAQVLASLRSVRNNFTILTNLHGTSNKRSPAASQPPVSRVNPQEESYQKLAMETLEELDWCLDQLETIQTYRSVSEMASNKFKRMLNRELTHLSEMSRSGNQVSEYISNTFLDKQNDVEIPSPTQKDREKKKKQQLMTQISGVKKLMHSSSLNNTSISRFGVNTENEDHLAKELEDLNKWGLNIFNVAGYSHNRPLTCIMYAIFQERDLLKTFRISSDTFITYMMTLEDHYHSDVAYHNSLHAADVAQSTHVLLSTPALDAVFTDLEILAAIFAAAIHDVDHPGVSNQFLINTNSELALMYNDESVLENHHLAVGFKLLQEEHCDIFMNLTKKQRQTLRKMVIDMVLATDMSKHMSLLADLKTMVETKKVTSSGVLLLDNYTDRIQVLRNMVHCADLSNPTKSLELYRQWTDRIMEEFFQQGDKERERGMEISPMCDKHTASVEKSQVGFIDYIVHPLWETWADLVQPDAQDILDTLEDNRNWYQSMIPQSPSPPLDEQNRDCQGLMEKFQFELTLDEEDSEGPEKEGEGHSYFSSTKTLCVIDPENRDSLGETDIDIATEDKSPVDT

The test addresses T1, human PDE4B1 (Homo sapiens, UniProt Q07343).
T1 construct: host or cells: Sf9 cells
Put plainly: cAMP HTRF assay to determine the activity of hPDE4B1. In kind it is biochemical. As to conditions: inhibition of PDE4B at a test concentration of 1 μM. Summed up: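 Human recombinant PDE4B1 from Sf9 cells (4.8 U) in Tris-HCl, MgCl2, DTT, Tween 20 buffer at pH 7.8 with 40 nM cAMP (final), 30 min at room temperature. Reaction stopped with 1 mM IBMX; remaining cAMP detected by HTRF (665/620 nm ratio). IC50 from eight-concentration curves.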
`Cc1ccc(F)c(-c2cnc(-n3cc(S(C)(=O)=O)c4ccc(C(=O)N5CC[C@@H](N)C5)cc43)nc2)c1` [Example 231, (R)-(3-Aminopyrrolidin-1-yl)(1-(5-(2-fluoro-5-methylphenyl)pyrimidin-2-yl)-3-(methylsulfonyl)-1H-indol-6-yl)methanone]: the inhibition at 1 µM amounted to 121%. Consider `C[S+]([O-])c1cn(-c2ncc(-c3ccccc3)cn2)c2cc(C(=O)N3C[C@H]4C[C@@H]3CN4)ccc12` (stereo partly drawn) [Example 232, (1R,4R)-2,5-Diazabicyclo[2.2.1]heptan-2-yl(3-(methylsulfinyl)-1-(5-phenylpyrimidin-2-yl)-1H-indol-6-yl)methanone], for which the inhibition at 1 µM is 57%. `C[S+]([O-])c1cn(-c2ncc(-c3ccccc3)cn2)c2cc(C(=O)N3C[C@@H]4C[C@H]3CN4)ccc12` (stereo partly drawn) [Example 233, (1S,4S)-2,5-Diazabicyclo[2.2.1]heptan-2-yl(3-(methylsulfinyl)-1-(5-phenylpyrimidin-2-yl)-1H-indol-6-yl)methanone]: the inhibition at 1 µM is 103%. Take `C[S+]([O-])c1cn(-c2ncc(-c3ccccc3)cn2)c2cc(C(=O)N3C[C@H]4C[C@@H]3CO4)ccc12` (stereo partly drawn) [Example 234, (1R,4R)-2-Oxa-5-azabicyclo[2.2.1]heptan-5-yl(3-(methylsulfinyl)-1-(5-phenylpyrimidin-2-yl)-1H-indol-6-yl)methanone]: the inhibition at 1 µM came out at 91%.

As for `CS(=O)(=O)c1cn(-c2ncc(-c3ccccc3)cn2)c2cc(C(=O)N3C[C@@H]4C[C@H]3CN4)ccc12` [Example 236, (1S,4S)-2,5-Diazabicyclo[2.2.1]heptan-2-yl(3-(methylsulfonyl)-1-(5-phenylpyrimidin-2-yl)-1H-indol-6-yl)methanone], the inhibition at 1 µM came out at 85%. Next, `CS(=O)(=O)c1cn(-c2ncc(-c3ccccc3)cn2)c2cc(C(=O)N3C[C@H]4C[C@@H]3CO4)ccc12` [Example 237, (1R,4R)-2-Oxa-5-azabicyclo[2.2.1]heptan-5-yl(3-(methylsulfonyl)-1-(5-phenylpyrimidin-2-yl)-1H-indol-6-yl)methanone]: 36%.

As to `CS(=O)(=O)c1cn(-c2ncc(-c3ccccc3F)cn2)c2cc(C(=O)N3C[C@H]4C[C@@H]3CO4)ccc12` [Example 238, (1R,4R)-2-Oxa-5-azabicyclo[2.2.1]heptan-5-yl(1-(5-(2-fluorophenyl)pyrimidin-2-yl)-3-(methylsulfonyl)-1H-indol-6-yl)methanone], the inhibition at 1 µM was 32%. As for `CS(=O)(=O)c1cn(-c2ncc(-c3ccccc3F)cn2)c2cc(C(=O)N3C[C@@H]4C[C@H]3CN4)ccc12` [Example 239, (1S,4S)-2,5-Diazabicyclo[2.2.1]heptan-2-yl(1-(5-(2-fluorophenyl)pyrimidin-2-yl)-3-(methylsulfonyl)-1H-indol-6-yl)methanone], the inhibition at 1 µM was 78%. In the case of `C[S+]([O-])c1cn(-c2ncc(-c3ccccc3F)cn2)c2cc(C(=O)N3C[C@@H]4C[C@H]3CN4)ccc12` (stereo partly drawn) [Example 240, (1S,4S)-2,5-Diazabicyclo[2.2.1]heptan-2-yl(1-(5-(2-fluorophenyl)pyrimidin-2-yl)-3-(methylsulfinyl)-1H-indol-6-yl)methanone], the inhibition at 1 µM came out at 101%. Next, `C[S+]([O-])c1cn(-c2ncc(-c3ccccc3F)cn2)c2cc(C(=O)N3C[C@@H]4CCN[C@@H]4C3)ccc12` (stereo partly drawn) [Example 242, (1-(5-(2-Fluorophenyl)pyrimidin-2-yl)-3-(methylsulfinyl)-1H-indol-6-yl)((3aS,6aS)-hexahydropyrrolo[3,4-b]pyrrol-5(1H)-yl)methanone]: 66%; `C[S+]([O-])c1cn(-c2ncc(-c3ccccc3F)cn2)c2cc(C(=O)N3C[C@H]4C[C@@H]3CO4)ccc12` (stereo partly drawn) [Example 243, (1R,4R)-2-Oxa-5-azabicyclo[2.2.1]heptan-5-yl(1-(5-(2-fluorophenyl)pyrimidin-2-yl)-3-(methylsulfinyl)-1H-indol-6-yl)methanone]: 64%.

Regarding `C[S+]([O-])c1cn(-c2ncc(-c3ccccn3)cn2)c2cc(C(=O)N3C[C@@H]4C[C@H]3CN4)ccc12` (stereo partly drawn) [Example 244, (1S,4S)-2,5-Diazabicyclo[2.2.1]heptan-2-yl(3-(methylsulfinyl)-1-(5-(pyridin-2-yl)pyrimidin-2-yl)-1H-indol-6-yl)methanone], the inhibition at 1 µM came to 102%. As to `CN(CC1(O)CC1)C(=O)c1ccc2c([S+](C)[O-])cn(-c3ncc(-c4ccccc4F)cn3)c2c1` (centres unmarked) [Example 250, 1-(5-(2-Fluorophenyl)pyrimidin-2-yl)-N-((1-hydroxycyclopropyl)methyl)-N-methyl-3-(methylsulfinyl)-1H-indole-6-carboxamide], the inhibition at 1 µM came out at 30%. Take `C[C@H](O)CN(C)C(=O)c1ccc2c([S+](C)[O-])cn(-c3ncc(-c4ccccc4F)cn3)c2c1` (stereo partly drawn) [Example 251, 1-(5-(2-Fluorophenyl)pyrimidin-2-yl)-N—((S)-2-hydroxypropyl)-N-methyl-3-(methylsulfinyl)-1H-indole-6-carboxamide]: the inhibition at 1 µM was found to be 45%. For the compound `C[S+]([O-])c1cn(-c2ncc(-c3ccccc3F)cn2)c2cc(C(=O)N3CCC3)ccc12` (centres unmarked) [Example 355, Azetidin-1-yl(1-(5-(2-fluorophenyl)pyrimidin-2-yl)-3-(methylsulfinyl)-1H-indol-6-yl)methanone], the inhibition at 1 µM came to 77%. `CCN(C)C(=O)c1ccc2c([S+](C)[O-])cn(-c3ncc(-c4ccccc4F)cn3)c2c1` (centres unmarked) [Example 356, N-Ethyl-1-(5-(2-fluorophenyl)pyrimidin-2-yl)-N-methyl-3-(methylsulfinyl)-1H-indole-6-carboxamide]: the inhibition at 1 µM was 96%. For the compound `CCN(CC)C(=O)c1ccc2c([S+](C)[O-])cn(-c3ncc(-c4ccccc4F)cn3)c2c1` (centres unmarked) [Example 357, N,N-Diethyl-1-(5-(2-fluorophenyl)pyrimidin-2-yl)-3-(methylsulfinyl)-1H-indole-6-carboxamide], the inhibition at 1 µM stood at 107%. Turning to `C[S+]([O-])c1cn(-c2ncc(-c3ccccc3F)cn2)c2cc(C(=O)N3CCCCC3)ccc12` (centres unmarked) [Example 358, (1-(5-(2-Fluorophenyl)pyrimidin-2-yl)-3-(methylsulfinyl)-1H-indol-6-yl)(piperidin-1-yl)methanone], the inhibition at 1 µM was 98%.

Consider `CC1CCCN1C(=O)c1ccc2c([S+](C)[O-])cn(-c3ncc(-c4ccccc4F)cn3)c2c1` (centres unmarked) [Example 359, (1-(5-(2-Fluorophenyl)pyrimidin-2-yl)-3-(methylsulfinyl)-1H-indol-6-yl)(2-methylpyrrolidin-1-yl)methanone], for which the inhibition at 1 µM was found to be 90%. As to `CN(CC1CC1)C(=O)c1ccc2c([S+](C)[O-])cn(-c3ncc(-c4ccccc4F)cn3)c2c1` (centres unmarked) [Example 360, N-(Cyclopropylmethyl)-1-(5-(2-fluorophenyl)pyrimidin-2-yl)-N-methyl-3-(methylsulfinyl)-1H-indole-6-carboxamide], the inhibition at 1 µM stood at 75%.

Take `CC1CCCCN1C(=O)c1ccc2c([S+](C)[O-])cn(-c3ncc(-c4ccccc4F)cn3)c2c1` (centres unmarked) [Example 361, (1-(5-(2-Fluorophenyl)pyrimidin-2-yl)-3-(methylsulfinyl)-1H-indol-6-yl)(2-methylpiperidin-1-yl)methanone]: the inhibition at 1 µM amounted to 40%. Next, `CC1CCCN(C(=O)c2ccc3c([S+](C)[O-])cn(-c4ncc(-c5ccccc5F)cn4)c3c2)C1` (centres unmarked) [Example 362, (1-(5-(2-Fluorophenyl)pyrimidin-2-yl)-3-(methylsulfinyl)-1H-indol-6-yl)(3-methylpiperidin-1-yl)methanone]: 78%; `CC1CCN(C(=O)c2ccc3c([S+](C)[O-])cn(-c4ncc(-c5ccccc5F)cn4)c3c2)CC1` (centres unmarked) [Example 363, (1-(5-(2-Fluorophenyl)pyrimidin-2-yl)-3-(methylsulfinyl)-1H-indol-6-yl)(4-methylpiperidin-1-yl)methanone]: 41%; `C[S+]([O-])c1cn(-c2ncc(-c3ccccc3F)cn2)c2cc(C(=O)N3CCCCCC3)ccc12` (centres unmarked) [Example 364, Azepan-1-yl(1-(5-(2-fluorophenyl)pyrimidin-2-yl)-3-(methylsulfinyl)-1H-indol-6-yl)methanone]: 73%. With `CN1CCN(C(=O)c2ccc3c([S+](C)[O-])cn(-c4ncc(-c5ccccc5F)cn4)c3c2)CC1` (centres unmarked) [Example 365, (1-(5-(2-Fluorophenyl)pyrimidin-2-yl)-3-(methylsulfinyl)-1H-indol-6-yl)(4-methylpiperazin-1-yl)methanone], the inhibition at 1 µM was 54%. `CC(C)N(C(=O)c1ccc2c([S+](C)[O-])cn(-c3ncc(-c4ccccc4F)cn3)c2c1)C(C)C` (centres unmarked) [Example 366, 1-(5-(2-Fluorophenyl)pyrimidin-2-yl)-N,N-diisopropyl-3-(methylsulfinyl)-1H-indole-6-carboxamide]: the inhibition at 1 µM was determined as 30%.

For `CN(C)CCN(C)C(=O)c1ccc2c([S+](C)[O-])cn(-c3ncc(-c4ccccc4F)cn3)c2c1` (centres unmarked) [Example 367, N-(2-(Dimethylamino)ethyl)-1-(5-(2-fluorophenyl)pyrimidin-2-yl)-N-methyl-3-(methylsulfinyl)-1H-indole-6-carboxamide], the inhibition at 1 µM was found to be 40%. In the case of `C[S+]([O-])c1cn(-c2ncc(-c3ccccc3F)cn2)c2cc(C(=O)N3CCSCC3)ccc12` (centres unmarked) [Example 368, (1-(5-(2-Fluorophenyl)pyrimidin-2-yl)-3-(methylsulfinyl)-1H-indol-6-yl)(thiomorpholino)methanone], the inhibition at 1 µM turned out to be 103%. Consider `CN(CCC(=O)O)C(=O)c1ccc2c([S+](C)[O-])cn(-c3ncc(-c4ccccc4F)cn3)c2c1` (centres unmarked) [Example 369, 3-(1-(5-(2-Fluorophenyl)pyrimidin-2-yl)-N-methyl-3-(methylsulfinyl)-1H-indole-6-carboxamido)propanoic acid], for which the inhibition at 1 µM worked out at 87%.

The inhibition is the change of the read-out against control, counted positive when it falls.
